# Molecular target: T1, NKG2D-Fc (Homo sapiens, UniProt P26718)
# T1 construct: the extracellular domain of NKG2D was fused with an IgG Fc fragment; made in house; host or cells: CHO cells
# T1 sequence (P26718 73-216 limits assumed): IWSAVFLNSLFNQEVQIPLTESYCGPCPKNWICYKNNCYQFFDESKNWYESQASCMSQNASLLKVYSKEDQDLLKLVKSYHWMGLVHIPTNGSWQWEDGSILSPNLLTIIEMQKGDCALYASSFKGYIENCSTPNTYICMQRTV
# Test: Flow cytometry on streptavidin sepharose beads coated with NKG2D-Fc
# Format: binding
# Details: 300 nM
# Experimental: HT1080.hPSMA and PC3.hACP3 cell lines were generated by lentiviral transduction on wild type cells (HT1080.wt and PC3.wt), according to published procedures9. For long-term storage, cell lines were maintained in liquid nitrogen. Prior to in vitro and in vivo experiments, cells were cultured in DMEM (PC3.wt, PC3.hACP3, HT1080.wt, and HT1080.hPSMA) or RPMI medium (SK-RC-52) (medium provided by Invitrogen) supplemented with FCS (10%, Invitrogen) and antibiotic-antimycotic (1%, AA, Invitrogen) at 37 °C and 5% CO2. For passaging, cells were detached using Trypsin-EDTA 0.05% (Invitrogen) when reaching 90% confluency and re-seeded at a dilution of 1:3 (PC3.hACP3 and PC3.wt) […]
# 2.17 Flow cytometry experiments on cells
# Cancer cells were detached with an Accutase® cell detachment solution, resuspended in a standard culture medium, and transferred to falcon tubes. Cells were counted and centrifuged at 400 rcf for 3 min. […] Data were acquired halting the measurement at 10´ 000 events on a Cytoflex S flow cytometer (Beckman Coulter), and analyzed using the FlowJo software v10 (BD Biosciences). […]
# plate (20 µL/well). […] Data were acquired halting the measurement at 10’000 events on a Cytoflex S flow cytometer (Beckman Coulter) and analyzed using the FlowJo software v10 (BD Biosciences). […]
smiles,measurement,value
CC(C)Oc1ccc(-c2cccc(C[C@H](NC(=O)c3ccccc3-c3ccc(C(F)(F)F)cc3)C(=O)N[C@@H](CCCCNC(=S)Nc3ccc4c(c3)C(=O)OC43c4ccc(O)cc4Oc4cc(O)ccc43)C(=O)O)c2)c(F)c1 [compound 30],binding on NKG2D-Fc-coated streptavidin sepharose beads by flow cytometry,significant shift in binding

# — paper PMC12463120, “Phenylalanine‐Based DNA‐Encoded Chemical Libraries for the Discovery of Potent and Selective Small Organic Ligands Against Markers of Cancer and Immune Cells” (Advanced Science, 2025)
